Reference: PubChem BioAssay (NCI)
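Compound exposure: 48 hours, 5 concentrations, 96-well plates. Abbreviation: GI50, concentration required for 50% inhibition of growth. TGI marks complete inhibition of growth.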

Columns and labels:
Assay in all cases: NCI tumour cell line growth inhibition, 48 h
NCI-H23 lung = tested on: NCI-H23 lung
SW-620 colon = tested on: SW-620 colon
SK-OV-3 ovarian = tested on: SK-OV-3 ovarian
NCI-H522 lung = tested on: NCI-H522 lung
HCT-15 colon = tested on: HCT-15 colon
786-0 renal = tested on: 786-0 renal
DU-145 prostate = tested on: DU-145 prostate
A549 NSCLC = tested on: A549 NSCLC
OVCAR-4 ovarian = tested on: OVCAR-4 ovarian
KM12 colon = tested on: KM12 colon
HCT-116 colon = tested on: HCT-116 colon
EKVX NSCLC = tested on: EKVX NSCLC
NCI/ADR-RES ovarian = tested on: NCI/ADR-RES ovarian
NCI-H460 lung = tested on: NCI-H460 lung
CAKI-1 renal = tested on: CAKI-1 renal
COLO 205 colon = tested on: COLO 205 colon
UACC-257 melanoma = tested on: UACC-257 melanoma
LOX IMVI melanoma = tested on: LOX IMVI melanoma
MCF7 breast = tested on: MCF7 breast
M14 melanoma = tested on: M14 melanoma
NCI-H226 lung = tested on: NCI-H226 lung
K-562 leukemia = tested on: K-562 leukemia
U251 CNS = tested on: U251 CNS
SR leukemia = tested on: SR leukemia
OVCAR-5 ovarian = tested on: OVCAR-5 ovarian
SF-539 CNS = tested on: SF-539 CNS
OVCAR-3 ovarian = tested on: OVCAR-3 ovarian
RPMI-8226 leukemia = tested on: RPMI-8226 leukemia
HL-60(TB) leukemia = tested on: HL-60(TB) leukemia
CCRF-CEM leukemia = tested on: CCRF-CEM leukemia
RXF 393 renal = tested on: RXF 393 renal
SK-MEL-5 melanoma = tested on: SK-MEL-5 melanoma
ACHN renal = tested on: ACHN renal
HOP-62 NSCLC = tested on: HOP-62 NSCLC
MDA-MB-231 breast = tested on: MDA-MB-231 breast
SK-MEL-2 melanoma = tested on: SK-MEL-2 melanoma
TK-10 renal = tested on: TK-10 renal
SNB-19 CNS = tested on: SNB-19 CNS
BT-549 breast = tested on: BT-549 breast
A498 renal = tested on: A498 renal
SF-268 CNS = tested on: SF-268 CNS
HS 578T breast = tested on: HS 578T breast
MOLT-4 leukemia = tested on: MOLT-4 leukemia
T-47D breast = tested on: T-47D breast
SN12C renal = tested on: SN12C renal
UO-31 renal = tested on: UO-31 renal
UACC-62 melanoma = tested on: UACC-62 melanoma
IGROV1 ovarian = tested on: IGROV1 ovarian
SF-295 CNS = tested on: SF-295 CNS
MDA-MB-468 breast = tested on: MDA-MB-468 breast
SNB-75 CNS = tested on: SNB-75 CNS
MDA-MB-435 = tested on: MDA-MB-435
OVCAR-8 ovarian = tested on: OVCAR-8 ovarian
HOP-92 NSCLC = tested on: HOP-92 NSCLC
HT29 colon = tested on: HT29 colon
MALME-3M melanoma = tested on: MALME-3M melanoma
HCC-2998 colon = tested on: HCC-2998 colon
PC-3 prostate = tested on: PC-3 prostate
SK-MEL-28 melanoma = tested on: SK-MEL-28 melanoma

COc1ccc(/C=C/c2nc3ccccc3c(=O)n2CC(=O)Nc2ccccc2)cc1 was tested, and the GI50 (NCI-H23 lung) was 6.01 µM, the TGI (NCI-H23 lung) was greater than 62.4 µM and the GI50 (SW-620 colon) was greater than 21.3 µM. It also gave a TGI (SW-620 colon) greater than 100 µM, a GI50 (SK-OV-3 ovarian) of 2.98 µM and a TGI (SK-OV-3 ovarian) of 18.7 µM. The GI50 (NCI-H522 lung) was 16.8 µM, the TGI (NCI-H522 lung) was greater than 100 µM and the GI50 (HCT-15 colon) was greater than 100 µM. It also gave a TGI (HCT-15 colon) greater than 100 µM, a GI50 (786-0 renal) of 1.19 µM and a TGI (786-0 renal) of 3.18 µM. For the same compound, the GI50 (DU-145 prostate) was greater than 100 µM, the TGI (DU-145 prostate) was greater than 100 µM and the GI50 (A549 NSCLC) was 0.731 µM. It also gave a TGI (A549 NSCLC) greater than 42.7 µM, a GI50 (OVCAR-4 ovarian) of 0.734 µM and a GI50 (KM12 colon) greater than 100 µM. It also gave a TGI (KM12 colon) greater than 100 µM, a GI50 (HCT-116 colon) of 1.26 µM and a TGI (HCT-116 colon) greater than 39.4 µM. The GI50 (EKVX NSCLC) was greater than 69.4 µM, the TGI (EKVX NSCLC) was greater than 100 µM and the GI50 (NCI/ADR-RES ovarian) was 4.64 µM. It also gave a TGI (NCI/ADR-RES ovarian) greater than 100 µM, a GI50 (NCI-H460 lung) of 2.25 µM and a TGI (NCI-H460 lung) greater than 100 µM. It also gave a GI50 (CAKI-1 renal) of 1.7 µM, a TGI (CAKI-1 renal) greater than 23.9 µM and a GI50 (COLO 205 colon) greater than 37.3 µM. It also gave a TGI (COLO 205 colon) greater than 77.7 µM, a GI50 (UACC-257 melanoma) greater than 85.1 µM and a TGI (UACC-257 melanoma) greater than 100 µM. For the same compound, the GI50 (LOX IMVI melanoma) was 4.38 µM, the TGI (LOX IMVI melanoma) was greater than 100 µM and the GI50 (MCF7 breast) was greater than 26 µM. It also gave a TGI (MCF7 breast) greater than 100 µM, a GI50 (M14 melanoma) of 27 µM and a TGI (M14 melanoma) greater than 51 µM. It also gave a GI50 (NCI-H226 lung) of 2.42 µM, a TGI (NCI-H226 lung) of 16.4 µM and a GI50 (K-562 leukemia) greater than 100 µM. It also gave a TGI (K-562 leukemia) greater than 100 µM, a GI50 (U251 CNS) of 0.972 µM and a TGI (U251 CNS) of 10.9 µM. The GI50 (SR leukemia) was greater than 100 µM, the TGI (SR leukemia) was greater than 100 µM and the GI50 (OVCAR-5 ovarian) was 6.47 µM. For the same compound, the TGI (OVCAR-5 ovarian) was greater than 100 µM, the GI50 (SF-539 CNS) was 3.42 µM and the TGI (SF-539 CNS) was 14.5 µM. The GI50 (OVCAR-3 ovarian) was 3.91 µM, the TGI (OVCAR-3 ovarian) was greater than 100 µM and the GI50 (RPMI-8226 leukemia) was greater than 100 µM. It also gave a TGI (RPMI-8226 leukemia) greater than 100 µM, a GI50 (HL-60(TB) leukemia) greater than 100 µM and a TGI (HL-60(TB) leukemia) greater than 100 µM. The GI50 (CCRF-CEM leukemia) was greater than 100 µM, the TGI (CCRF-CEM leukemia) was greater than 100 µM and the GI50 (RXF 393 renal) was 2.23 µM. The TGI (RXF 393 renal) was 10.6 µM, the GI50 (SK-MEL-5 melanoma) was greater than 91.4 µM and the TGI (SK-MEL-5 melanoma) was greater than 100 µM. The GI50 (ACHN renal) was 0.718 µM, the TGI (ACHN renal) was 2.49 µM and the GI50 (HOP-62 NSCLC) was 4.31 µM. For the same compound, the TGI (HOP-62 NSCLC) was 19.2 µM, the GI50 (MDA-MB-231 breast) was 2.01 µM and the TGI (MDA-MB-231 breast) was 7.54 µM. The GI50 (SK-MEL-2 melanoma) was greater than 77.8 µM, the TGI (SK-MEL-2 melanoma) was greater than 100 µM and the GI50 (TK-10 renal) was 2.05 µM. It also gave a TGI (TK-10 renal) of 5.43 µM, a GI50 (SNB-19 CNS) of 3.74 µM and a TGI (SNB-19 CNS) greater than 73.9 µM. It also gave a GI50 (BT-549 breast) greater than 74.6 µM, a TGI (BT-549 breast) greater than 100 µM and a GI50 (A498 renal) of 2.23 µM. The TGI (A498 renal) was 5.2 µM, the GI50 (SF-268 CNS) was 19.1 µM and the TGI (SF-268 CNS) was greater than 100 µM. The GI50 (HS 578T breast) was 2.79 µM, the TGI (HS 578T breast) was greater than 92.5 µM and the GI50 (MOLT-4 leukemia) was greater than 100 µM. It also gave a TGI (MOLT-4 leukemia) greater than 100 µM, a GI50 (T-47D breast) of 1.8 µM and a TGI (T-47D breast) greater than 28.9 µM. For the same compound, the GI50 (SN12C renal) was 1.82 µM, the TGI (SN12C renal) was greater than 36.6 µM and the GI50 (UO-31 renal) was 1.44 µM. It also gave a TGI (UO-31 renal) of 3.64 µM, a GI50 (UACC-62 melanoma) greater than 62.4 µM and a TGI (UACC-62 melanoma) greater than 100 µM. The GI50 (IGROV1 ovarian) was 12.6 µM, the TGI (IGROV1 ovarian) was greater than 100 µM and the GI50 (SF-295 CNS) was 2.48 µM. The TGI (SF-295 CNS) was 30.8 µM, the GI50 (MDA-MB-468 breast) was 6.23 µM and the TGI (MDA-MB-468 breast) was greater than 53.7 µM. It also gave a GI50 (SNB-75 CNS) of 1.27 µM, a TGI (SNB-75 CNS) of 4.97 µM and a GI50 (MDA-MB-435) greater than 93.4 µM. It also gave a TGI (MDA-MB-435) greater than 100 µM, a GI50 (OVCAR-8 ovarian) of 4.74 µM and a TGI (OVCAR-8 ovarian) greater than 100 µM. For the same compound, the GI50 (HOP-92 NSCLC) was 2.78 µM, the TGI (HOP-92 NSCLC) was 13.3 µM and the GI50 (HT29 colon) was greater than 100 µM. The TGI (HT29 colon) was greater than 100 µM, the GI50 (MALME-3M melanoma) was 5.2 µM and the TGI (MALME-3M melanoma) was 55.9 µM. For the same compound, the GI50 (HCC-2998 colon) was greater than 100 µM, the TGI (HCC-2998 colon) was greater than 100 µM and the GI50 (PC-3 prostate) was greater than 100 µM. It also gave a TGI (PC-3 prostate) greater than 100 µM, a GI50 (SK-MEL-28 melanoma) greater than 100 µM and a TGI (SK-MEL-28 melanoma) greater than 100 µM.
